Data taken from PMC10755728, “Inhibitors of the Elastase LasB for the Treatment of Pseudomonas aeruginosa Lung Infections” (ACS Central Science, 2023).
Like-named read-outs stand apart in the source and are kept apart here.

What was measured:
Plasma stability, rat = format: in vitro ADME; settings: Wistar, pooled plasma, species profiling, read-out: Plasma T1/2 Rat (Wistar)
[1] = Microsomal stability, rat liver microsomes; format: in vitro ADME; settings: Wistar, pooled liver microsomes
P. aeruginosa PA14 = assay: Bacterial growth inhibition assay; format: cell-based, Pseudomonas aeruginosa
Description: Bacterial growth inhibition assay. Assays regarding the determination of the MIC were
performed as described recently for P. aeruginosa PA14.58

[2] = Metabolic stability in mouse liver S9 fraction; format: in vitro ADME
HepG2 = settings: human, 48 h, 100 µM
Description: Culturing of HepG2, A549 and HEK293 cells. The human hepatocellular carcinoma cell line HepG2, the lung adenocarcinoma cell line A549 and Human Embryonic (HEK) 293 cells were cultured in Dulbecco's Modified Eagle Medium (DMEM), containing 10% Fetal Bovine Serum
(FBS) and 1% penicillin-streptomycin mixture. Cells were maintained according to standard cell
Cytotoxicity assay. An MTT-based assay was employed to evaluate the viability of HepG2,
HEK293 and A549 cells after challenge with selected LasB inhibitors and performed as described

in vivo = settings: mice, nebulization 10 mg/kg; for Cmax / Tmax: 10 mg/kg
Description: Up to 5 compounds were dosed per cassette.
anesthetized using ketamine 100 mg/kg and xylazine 10 mg/kg intraperitoneally.
time point) were euthanized at t= 0.5, 2 and 5 h post administration.
10 mg/kg using a Kent Scientific Aeroneb® nebulizer.
Blood was collected from the heart.
blood was collected into Eppendorf tubes coated with 0.5 M EDTA and immediately spun down
at 13,000 rpm for 10 min at 4 °C. The plasma was transferred into a new Eppendorf tube and then
stored at –80 °C until analysis. Then, a broncheoalveolar lavage was conducted using isotonic
sodium chloride solut ion. Lung, kidneys, and liver were aseptically removed and homogenized
using a Polytron tissue homogenizer (Kinematica) in isotonic sodium chloride solution.
samples were aliquoted into Eppendorf tubes and stored at –80 °C until analysis.
spontaneous urine was also collected. Bioanalytical sample preparation.
an AB Sciex QTrap6500+ mass spectrometer. First, a calibration curve was prepared by spiking
Caffeine was used as an internal standard.
min at 2,000 rpm on an Eppendorf MixMate® vortex mixer.
caffeine as internal standard for 5 min at 2000 rpm on an Eppendorf MixMate® vortex mixer.
Then samples (plasma and urine) were spun down at 1 3,000 rpm for 5 min. Supernatants were transferred to standard HPLC -glass vials.
tissue sample (calibration samples, QCs or PK samples) were extracted with 50 µL of methanol
and 1 µL caffeine (concent ration 1 µg/mL in methanol) for 5 min at 800 rpm on an Eppendorf MixMate® vortex mixer. Then samples (BALF, liver, kidney, lung) were spun down at 4,000 rpm
for 40 min at 4 °C. Supernatants were transferred to 96well V -bottom plates (Greiner).
conditions were as follows: column: Agilent Zorbax Eclipse Plus C18, 50x2.1 mm, 1.8 µm;
temperature: 30 °C; injection volume: 5 µL; flow rate: 700 µL/min; solvent A: water + 0.1%
Urea was used to enable calculation of
epithelial lining fluid (ELF) concentrations. Peak areas of each sample and of the corresponding
internal standard were analyzed using MultiQuant 3.0 software (AB Sciex).
respective sample were normalized to the internal standard peak area.
compound were used for qualification.
curve. The accuracy of the calibration curve was determined using QCs independently prepared
on different days. PK parameters were determined using a non-compartmental analysis with

CC(C)CC(C(=O)Nc1ccc(C(F)(F)F)cc1)P(=O)(O)O (stereo not shown) [Compound 4b]
half-life (Plasma stability, rat): > 240 min | microsomal CLint [1]: < 11.6 µL/min/mg | inhibition at 100 µM (P. aeruginosa PA14; Pseudomonas aeruginosa, PA14, 100 µM compound concentration, read-out: Percent (%) growth inhibition of P. aeruginosa PA14): < 10% | antibacterial activity (P. aeruginosa PA14; up to 100 μM): do not possess any antibacterial activity | microsomal CLint at 1 μM [2]: < 5.8 µL/min/mg | % growth inhibition HepG2 (HepG2): 18 ± 11% | Kp (in vivo; male, CD-1, mouse, ELF/plasma, inhaled, read-out: ELF/plasma ratio): 6.12 | Cmax (in vivo; male, CD-1, mouse, epithelial lining fluid (ELF), inhaled or intranasal, read-out: Cmax ELF): 19900 ± 14000 ng/mL | Tmax (in vivo; male, CD-1, mouse, epithelial lining fluid (ELF), inhaled or intranasal, read-out: Tmax ELF): 34.8 ± 24 min | AUC(0-t) (in vivo; male, CD-1, mouse, epithelial lining fluid (ELF), inhaled or intranasal, read-out: AUC 0-t ELF): 49700 ± 16200 ng·h/mL | CL/F (in vivo; male, CD-1, mouse, inhaled or intranasal, plasma): 20.7 ± 2 mL/min/kg | Tmax (in vivo; male, CD-1, mouse, lung, inhaled or intranasal, read-out: Tmax lung): 19.8 ± 6 min | Cmax (in vivo; male, CD-1, mouse, plasma, inhaled or intranasal, read-out: Cmax plasma): 633 ± 59 ng/mL | Tmax (in vivo; male, CD-1, mouse, plasma, inhaled or intranasal, read-out: Tmax plasma): 240 ± 210 min | MRT (in vivo; male, CD-1, mouse, plasma, inhaled or intranasal): 6.8 ± 0.3 h | AUC(0-t) (in vivo; male, CD-1, mouse, plasma, inhaled or intranasal, read-out: AUC 0-t plasma): 8130 ng·h/mL | half-life (in vivo; male, CD-1, mouse, plasma, inhaled or intranasal, read-out: t1/2 plasma (converted)): 240 ± 18 min | AUC 0-t lung (in vivo): 249.0 ± 72.9 ng·h/g | Cmax lung (in vivo): 78.4 ± 15.9 ng/g
